Source: PubChem BioAssay (NCI)
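All cell lines were grown in 96-well plates and treated with compound for 48 hours. Definition used: TGI = concentration required for complete inhibition of growth.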

Tests used:
Test in all cases: NCI-60 cell line screen, 48 h
786-0 renal = system: 786-0 renal
A498 renal = system: A498 renal
A549 NSCLC = system: A549 NSCLC
ACHN renal = system: ACHN renal
BT-549 breast = system: BT-549 breast
CAKI-1 renal = system: CAKI-1 renal
CCRF-CEM leukemia = system: CCRF-CEM leukemia
COLO 205 colon = system: COLO 205 colon
DU-145 prostate = system: DU-145 prostate
HCC-2998 colon = system: HCC-2998 colon
HCT-116 colon = system: HCT-116 colon
HCT-15 colon = system: HCT-15 colon
HOP-62 NSCLC = system: HOP-62 NSCLC
HOP-92 NSCLC = system: HOP-92 NSCLC
HS 578T breast = system: HS 578T breast
HT29 colon = system: HT29 colon
IGROV1 ovarian = system: IGROV1 ovarian
K-562 leukemia = system: K-562 leukemia
KM12 colon = system: KM12 colon
LOX IMVI melanoma = system: LOX IMVI melanoma
M14 melanoma = system: M14 melanoma
MALME-3M melanoma = system: MALME-3M melanoma
MDA-MB-231 breast = system: MDA-MB-231 breast
MDA-MB-435 = system: MDA-MB-435
MDA-N = system: MDA-N
MOLT-4 leukemia = system: MOLT-4 leukemia
NCI-H226 lung = system: NCI-H226 lung
NCI-H23 lung = system: NCI-H23 lung
NCI-H460 lung = system: NCI-H460 lung
NCI-H522 lung = system: NCI-H522 lung
NCI/ADR-RES ovarian = system: NCI/ADR-RES ovarian
OVCAR-3 ovarian = system: OVCAR-3 ovarian
OVCAR-4 ovarian = system: OVCAR-4 ovarian
OVCAR-5 ovarian = system: OVCAR-5 ovarian
OVCAR-8 ovarian = system: OVCAR-8 ovarian
PC-3 prostate = system: PC-3 prostate
RPMI-8226 leukemia = system: RPMI-8226 leukemia
RXF 393 renal = system: RXF 393 renal
SF-268 CNS = system: SF-268 CNS
SF-295 CNS = system: SF-295 CNS
SK-MEL-2 melanoma = system: SK-MEL-2 melanoma
SK-MEL-28 melanoma = system: SK-MEL-28 melanoma
SK-MEL-5 melanoma = system: SK-MEL-5 melanoma
SK-OV-3 ovarian = system: SK-OV-3 ovarian
SN12C renal = system: SN12C renal
SNB-19 CNS = system: SNB-19 CNS
SNB-75 CNS = system: SNB-75 CNS
SR leukemia = system: SR leukemia
SW-620 colon = system: SW-620 colon
T-47D breast = system: T-47D breast
TK-10 renal = system: TK-10 renal
U251 CNS = system: U251 CNS
UACC-257 melanoma = system: UACC-257 melanoma
UACC-62 melanoma = system: UACC-62 melanoma
UO-31 renal = system: UO-31 renal
EKVX NSCLC = system: EKVX NSCLC
MCF7 breast = system: MCF7 breast
SF-539 CNS = system: SF-539 CNS

CCOC(=O)C(=[N+]=[N-])C(=O)C[N+]12CCN(CC1)CC2
TGI (786-0 renal): > 100 µM | TGI (A498 renal): > 100 µM | TGI (A549 NSCLC): > 100 µM | TGI (ACHN renal): > 100 µM | TGI (BT-549 breast): > 100 µM | TGI (CAKI-1 renal): > 100 µM | TGI (CCRF-CEM leukemia): > 100 µM | TGI (COLO 205 colon): > 100 µM | TGI (DU-145 prostate): > 100 µM | TGI (HCC-2998 colon): > 100 µM | TGI (HCT-116 colon): > 100 µM | TGI (HCT-15 colon): > 100 µM | TGI (HOP-62 NSCLC): > 100 µM | TGI (HOP-92 NSCLC): > 100 µM | TGI (HS 578T breast): > 100 µM | TGI (HT29 colon): > 100 µM | TGI (IGROV1 ovarian): > 100 µM | TGI (K-562 leukemia): > 100 µM | TGI (KM12 colon): > 100 µM | TGI (LOX IMVI melanoma): > 100 µM | TGI (M14 melanoma): > 100 µM | TGI (MALME-3M melanoma): > 100 µM | TGI (MDA-MB-231 breast): > 100 µM | TGI (MDA-MB-435): > 100 µM | TGI (MDA-N): > 100 µM | TGI (MOLT-4 leukemia): > 100 µM | TGI (NCI-H226 lung): > 100 µM | TGI (NCI-H23 lung): > 100 µM | TGI (NCI-H460 lung): > 100 µM | TGI (NCI-H522 lung): > 100 µM | TGI (NCI/ADR-RES ovarian): > 100 µM | TGI (OVCAR-3 ovarian): > 100 µM | TGI (OVCAR-4 ovarian): > 100 µM | TGI (OVCAR-5 ovarian): > 100 µM | TGI (OVCAR-8 ovarian): > 100 µM | TGI (PC-3 prostate): > 100 µM | TGI (RPMI-8226 leukemia): > 100 µM | TGI (RXF 393 renal): > 100 µM | TGI (SF-268 CNS): > 100 µM | TGI (SF-295 CNS): > 100 µM | TGI (SK-MEL-2 melanoma): > 100 µM | TGI (SK-MEL-28 melanoma): > 100 µM | TGI (SK-MEL-5 melanoma): > 100 µM | TGI (SK-OV-3 ovarian): > 100 µM | TGI (SN12C renal): > 100 µM | TGI (SNB-19 CNS): > 100 µM | TGI (SNB-75 CNS): > 100 µM | TGI (SR leukemia): > 100 µM | TGI (SW-620 colon): > 100 µM | TGI (T-47D breast): > 100 µM | TGI (TK-10 renal): > 100 µM | TGI (U251 CNS): > 100 µM | TGI (UACC-257 melanoma): > 100 µM | TGI (UACC-62 melanoma): > 100 µM | TGI (UO-31 renal): > 100 µM

COc1ccc2oc(S(=O)(=O)N3CC(CCl)c4ccc([N+](=O)[O-])cc43)cc2c1 (stereo not given)
TGI (786-0 renal): 5.47 µM | TGI (A498 renal): 2.82 µM | TGI (A549 NSCLC): 18.1 µM | TGI (ACHN renal): > 48.1 µM | TGI (BT-549 breast): 16.4 µM | TGI (CAKI-1 renal): 0.239 µM | TGI (CCRF-CEM leukemia): > 100 µM | TGI (COLO 205 colon): 0.322 µM | TGI (DU-145 prostate): 0.317 µM | TGI (EKVX NSCLC): 48.8 µM | TGI (HCC-2998 colon): 2.62 µM | TGI (HCT-116 colon): 4.22 µM | TGI (HCT-15 colon): 3.3 µM | TGI (HOP-92 NSCLC): > 73.8 µM | TGI (HS 578T breast): > 100 µM | TGI (HT29 colon): 68 µM | TGI (K-562 leukemia): 0.285 µM | TGI (KM12 colon): 0.418 µM | TGI (LOX IMVI melanoma): 1.38 µM | TGI (M14 melanoma): 32.7 µM | TGI (MALME-3M melanoma): 32.8 µM | TGI (MCF7 breast): 14.4 µM | TGI (MDA-MB-231 breast): 1.23 µM | TGI (MDA-MB-435): 0.169 µM | TGI (MDA-N): 11 µM | TGI (MOLT-4 leukemia): > 100 µM | TGI (NCI-H226 lung): 1.43 µM | TGI (NCI-H23 lung): > 24 µM | TGI (NCI-H460 lung): 0.401 µM | TGI (NCI-H522 lung): 0.246 µM | TGI (NCI/ADR-RES ovarian): 4.03 µM | TGI (OVCAR-3 ovarian): 0.457 µM | TGI (OVCAR-4 ovarian): > 100 µM | TGI (OVCAR-5 ovarian): > 100 µM | TGI (OVCAR-8 ovarian): 4.36 µM | TGI (PC-3 prostate): 11.5 µM | TGI (RPMI-8226 leukemia): > 100 µM | TGI (SF-268 CNS): > 39.8 µM | TGI (SF-295 CNS): 0.196 µM | TGI (SF-539 CNS): 0.308 µM | TGI (SK-MEL-2 melanoma): 2.96 µM | TGI (SK-MEL-28 melanoma): > 61.6 µM | TGI (SK-MEL-5 melanoma): 5.45 µM | TGI (SK-OV-3 ovarian): 4.83 µM | TGI (SN12C renal): 14 µM | TGI (SNB-19 CNS): 29.2 µM | TGI (SNB-75 CNS): > 36.8 µM | TGI (SR leukemia): > 100 µM | TGI (SW-620 colon): > 100 µM | TGI (T-47D breast): 79.8 µM | TGI (TK-10 renal): > 55.2 µM | TGI (U251 CNS): 0.348 µM | TGI (UACC-257 melanoma): > 32.1 µM | TGI (UACC-62 melanoma): > 37.6 µM | TGI (UO-31 renal): > 40.3 µM
